Results from article PMC9352624, “Going deeper into the toxicokinetics of synthetic cannabinoids: in vitro contribution of human carboxylesterases” (Archives of Toxicology, 2022).
Read-outs that look alike come from different tables or passages of the source.

Tests used:
[1] = target: T1, hCES1b (Homo sapiens, UniProt P23141); experiment: Initial activity screening with recombinant hCES1b; settings: 100 µM substrate, 30 min, 37 °C, 0.2 µg/µL protein, LC–ITMS, mean n = 2
T1 sequence (P23141 18-567): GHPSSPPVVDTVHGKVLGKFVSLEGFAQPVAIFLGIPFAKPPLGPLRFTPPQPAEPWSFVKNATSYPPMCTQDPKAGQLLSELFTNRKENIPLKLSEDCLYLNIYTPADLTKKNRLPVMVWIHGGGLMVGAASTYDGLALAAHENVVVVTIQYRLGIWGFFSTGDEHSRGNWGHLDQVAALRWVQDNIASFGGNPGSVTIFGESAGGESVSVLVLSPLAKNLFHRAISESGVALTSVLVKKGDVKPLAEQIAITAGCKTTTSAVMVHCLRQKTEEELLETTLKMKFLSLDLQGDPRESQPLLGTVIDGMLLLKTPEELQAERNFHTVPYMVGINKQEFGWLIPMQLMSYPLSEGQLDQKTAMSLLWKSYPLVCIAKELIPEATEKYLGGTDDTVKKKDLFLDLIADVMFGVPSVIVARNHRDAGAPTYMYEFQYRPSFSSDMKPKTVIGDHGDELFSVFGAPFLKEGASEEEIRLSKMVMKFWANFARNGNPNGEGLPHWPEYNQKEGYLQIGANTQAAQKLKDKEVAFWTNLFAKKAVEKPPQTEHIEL

[2] = Initial activity screening with pooled human liver S9 fraction; settings: 100 µM substrate, 30 min, 37 °C, 2 µg/µL protein, LC–ITMS, mean n = 2
[3] = target: T2, hCES2 (Homo sapiens, UniProt O00748); experiment: Enzyme kinetic studies of ester hydrolysis with hCES2; settings: for Vmax (relative), ester hydrolysis by hCES2: peak area ratio metabolite/internal standard
T2 sequence (O00748 27-559): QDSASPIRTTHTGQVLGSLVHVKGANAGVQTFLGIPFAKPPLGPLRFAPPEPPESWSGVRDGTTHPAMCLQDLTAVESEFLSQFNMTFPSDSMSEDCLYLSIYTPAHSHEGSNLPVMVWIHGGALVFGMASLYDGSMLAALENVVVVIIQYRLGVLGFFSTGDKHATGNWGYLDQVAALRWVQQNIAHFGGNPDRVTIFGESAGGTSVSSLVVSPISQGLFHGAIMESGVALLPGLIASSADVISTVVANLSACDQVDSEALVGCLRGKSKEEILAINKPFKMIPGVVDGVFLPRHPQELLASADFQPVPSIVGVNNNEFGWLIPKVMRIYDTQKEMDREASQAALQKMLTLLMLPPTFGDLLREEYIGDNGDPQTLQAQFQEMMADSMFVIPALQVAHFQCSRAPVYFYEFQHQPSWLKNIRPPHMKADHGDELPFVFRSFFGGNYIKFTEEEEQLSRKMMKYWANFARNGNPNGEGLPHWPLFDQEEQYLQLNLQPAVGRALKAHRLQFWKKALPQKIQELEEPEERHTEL

[4] = Initial activity screening with pooled human liver microsomes; settings: 100 µM substrate, 30 min, 37 °C, 2 µg/µL protein, LC–ITMS, mean n = 2
[5] = target: T3, hCES1c (Homo sapiens, UniProt P23141); experiment: Initial activity screening with recombinant hCES1c; settings: 100 µM substrate, 30 min, 37 °C, 0.2 µg/µL protein, LC–ITMS, mean n = 2
T3 sequence (P23141 18-566 isoform P23141-3 limits assumed): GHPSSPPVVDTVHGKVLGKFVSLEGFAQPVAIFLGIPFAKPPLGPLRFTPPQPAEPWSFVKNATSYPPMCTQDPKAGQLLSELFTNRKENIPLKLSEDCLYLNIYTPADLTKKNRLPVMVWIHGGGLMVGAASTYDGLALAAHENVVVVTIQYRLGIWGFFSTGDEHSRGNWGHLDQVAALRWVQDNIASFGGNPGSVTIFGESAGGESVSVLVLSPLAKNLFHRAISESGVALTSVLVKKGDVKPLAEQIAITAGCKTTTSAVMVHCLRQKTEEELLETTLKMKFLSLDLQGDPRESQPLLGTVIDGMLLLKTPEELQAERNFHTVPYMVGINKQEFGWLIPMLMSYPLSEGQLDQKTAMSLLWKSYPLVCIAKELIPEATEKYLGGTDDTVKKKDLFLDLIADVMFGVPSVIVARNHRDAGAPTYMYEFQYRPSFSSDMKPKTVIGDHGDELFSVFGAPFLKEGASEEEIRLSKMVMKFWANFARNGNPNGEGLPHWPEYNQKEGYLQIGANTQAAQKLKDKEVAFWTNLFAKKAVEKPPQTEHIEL

[6] = target: T2, hCES2; experiment: Initial activity screening with recombinant hCES2; settings: 100 µM substrate, 30 min, 37 °C, 0.2 µg/µL protein, LC–ITMS, mean n = 2
[7] = target: T1, hCES1b; experiment: Enzyme kinetic studies of ester hydrolysis with hCES1b; settings: for Vmax (relative), ester hydrolysis by hCES1b: peak area ratio metabolite/internal standard
[8] = target: T3, hCES1c; experiment: Enzyme kinetic studies of ester hydrolysis with hCES1c; settings: for Vmax (relative), ester hydrolysis by hCES1c: peak area ratio metabolite/internal standard
[9] = target: T3, hCES1c; set-up: purchased Corning (Amsterdam, The Netherlands); host or cells: baculovirus transfected insect cells; method as in Meyer et al. [2015]; settings: identical incubation conditions and analyzing methods; ref Meyer et al. [2015]; read-out: Km, hCES1c, literature value; cited from earlier work
[10] = target: T1, hCES1b; set-up: purchased Corning (Amsterdam, The Netherlands); host or cells: baculovirus transfected insect cells; method as in Meyer et al. [2015]; settings: identical incubation conditions and analyzing methods; ref Meyer et al. [2015]; read-out: Km, hCES1b, literature value; cited from earlier work
[11] = target: T2, hCES2; set-up: purchased Corning (Amsterdam, The Netherlands); host or cells: baculovirus transfected insect cells; method as in Meyer et al. [2015]; settings: identical incubation conditions and analyzing methods; ref Meyer et al. [2015]; read-out: Km, hCES2, literature value; cited from earlier work
[12] = Initial activity screening of AB-PINACA (Thomsen et al. conditions) with pHLM; type: in vitro ADME, human; settings: 10 µM, 20 min, 37 °C, 1 µg/µL protein
Method: (§1) The initial activity screening with AB-PINACA was conducted as described by Thomsen et al. with minor modifications (Thomsen et al. [2015]). […] All incubations were done in duplicate. […] Afterwards, 110 µL of 0.1% formic acid in water was added. […] Furthermore, 1 µL was analyzed by liquid chromatography–high-resolution tandem mass spectrometry (LC–HRMS/MS, apparatus details given in the Electronic Supplementary Material).
(§2) Data analysis was based on peak areas.

[13] = Initial activity screening of AB-PINACA (Thomsen et al. conditions) with pHLS9; type: in vitro ADME, human; settings: 10 µM, 20 min, 37 °C, 1 µg/µL protein
Method: as §1, §2

[14] = target: T3, hCES1c; experiment: Initial activity screening of AB-PINACA (Thomsen et al. conditions) with hCES1c; type: in vitro ADME; set-up: purchased Corning (Amsterdam, The Netherlands); host or cells: baculovirus transfected insect cells; settings: 10 µM, 20 min, 37 °C, 0.1 µg/µL protein
Method: as §1, §2

[15] = target: T2, hCES2; experiment: Initial activity screening of AB-PINACA (Thomsen et al. conditions) with hCES2; type: in vitro ADME; set-up: purchased Corning (Amsterdam, The Netherlands); host or cells: baculovirus transfected insect cells; settings: 10 µM, 20 min, 37 °C, 0.1 µg/µL protein
Method: as §1, §2

[16] = target: T1, hCES1b; experiment: Initial activity screening of AB-PINACA (Thomsen et al. conditions) with hCES1b; type: in vitro ADME; set-up: purchased Corning (Amsterdam, The Netherlands); host or cells: baculovirus transfected insect cells; settings: 10 µM, 20 min, 37 °C, 0.1 µg/µL protein
Method: as §1, §2

## COc1ccc2c3c1O[C@H]1C(OC(C)=O)=CC[C@H]4[C@@H](C2)N(C)CC[C@]314 [Thebacon, reference compound]
[1]
  Relative amount of hydrolysis metabolite formed, hCES1b: 47%
[2]
  Relative amount of hydrolysis metabolite formed, pHLS9: about 80%
[3]; Clint = Vmax/Km
  Clint (relative in vitro intrinsic clearance), hCES2: 0.89 AU/min/mg/µM
[3]; read-out: Corrected Km, hCES2, current Km adjusted by 2.2-fold enzyme load activity factor
  Km: 247 µM
[3]; read-out: Km, ester hydrolysis by hCES2, ± S.D., Michaelis–Menten fit, conditions of Table 1
  Km: 543 ± 87 µM
[3]; ± S.D.
  Vmax (relative), ester hydrolysis by hCES2: 482 ± 31 AU/min/mg
[3]; ± S.D., listed as thebacon
  Vmax (relative), ester hydrolysis by hCES2: 482 AU/min/mg
[4]
  Relative amount of hydrolysis metabolite formed, pHLM: about 80%
[5]
  Relative amount of hydrolysis metabolite formed, hCES1c: 10%
[6]
  Relative amount of hydrolysis metabolite formed, hCES2: 19%
[7]; Clint = Vmax/Km
  Clint (relative in vitro intrinsic clearance), hCES1b: 0.60 AU/min/mg/µM
[7]; read-out: Corrected Km, hCES1b, current Km adjusted by 2.4-fold enzyme load activity factor
  Km: 273 µM
[7]; read-out: Km, ester hydrolysis by hCES1b, ± S.D., Michaelis–Menten fit, conditions of Table 1
  Km: 655 ± 210 µM
[7]; ± S.D.
  Vmax (relative), ester hydrolysis by hCES1b: 394 ± 40 AU/min/mg
[7]; ± S.D., listed as thebacon
  Vmax (relative), ester hydrolysis by hCES1b: 394 AU/min/mg
[8]; Clint = Vmax/Km
  Clint (relative in vitro intrinsic clearance), hCES1c: 0.54 AU/min/mg/µM
[8]; read-out: Corrected Km, hCES1c, current Km adjusted by 5.3-fold enzyme load activity factor
  Km: 289 µM
[8]; read-out: Km, ester hydrolysis by hCES1c, ± S.D., Michaelis–Menten fit, conditions of Table 1
  Km: 1530 ± 470 µM
[8]; ± S.D.
  Vmax (relative), ester hydrolysis by hCES1c: 831 ± 140 AU/min/mg
[8]; ± S.D., listed as thebacon
  Vmax (relative), ester hydrolysis by hCES1c: 831 AU/min/mg
[9]
  Km: 264 µM
[10]
  Km: 272 µM
[11]
  Km: 166 µM

## CCCCCn1nc(C(=O)N[C@H](C(N)=O)C(C)C)c2ccccc21 [AB-PINACA, (S)-N-(1-amino-3-methyl-1-oxobutan-2-yl)-1-pentyl-1H-indazole-3-carboxamide]
[12]; LC–HRMS/MS
  Relative amount of carboxylic acid metabolite formed (head group carboxamide hydrolysis), pHLM: 4.3%
[12]; LC–ITMS
  Metabolite detection by LC–ITMS, pHLM: no AB-PINACA metabolites were detected
[13]; LC–HRMS/MS
  Relative amount of carboxylic acid metabolite formed (head group carboxamide hydrolysis), pHLS9: 2.2%
[13]; LC–ITMS
  Metabolite detection by LC–ITMS, pHLS9: no AB-PINACA metabolites were detected
[14]
  Metabolite detection by LC–ITMS, hCES1c: no AB-PINACA metabolites were detected
[15]
  Metabolite detection by LC–ITMS, hCES2: no AB-PINACA metabolites were detected
[16]; LC–HRMS/MS
  Relative amount of carboxylic acid metabolite formed (head group carboxamide hydrolysis), hCES1b: 1.4%
[16]; LC–ITMS
  Metabolite detection by LC–ITMS, hCES1b: no AB-PINACA metabolites were detected
